Our source for the AC50 values is ChEMBL document CHEMBL5291721, “A preclinical secondary pharmacology resource illuminates target-adverse drug reaction associations of marketed drugs” (Nat Commun, 2023).

Some results are limits rather than exact numbers.

Assay [1] deals with T1, Alpha-2A adrenergic receptor (Homo sapiens, UniProt P08913).
T1 sequence (P08913 whole entry): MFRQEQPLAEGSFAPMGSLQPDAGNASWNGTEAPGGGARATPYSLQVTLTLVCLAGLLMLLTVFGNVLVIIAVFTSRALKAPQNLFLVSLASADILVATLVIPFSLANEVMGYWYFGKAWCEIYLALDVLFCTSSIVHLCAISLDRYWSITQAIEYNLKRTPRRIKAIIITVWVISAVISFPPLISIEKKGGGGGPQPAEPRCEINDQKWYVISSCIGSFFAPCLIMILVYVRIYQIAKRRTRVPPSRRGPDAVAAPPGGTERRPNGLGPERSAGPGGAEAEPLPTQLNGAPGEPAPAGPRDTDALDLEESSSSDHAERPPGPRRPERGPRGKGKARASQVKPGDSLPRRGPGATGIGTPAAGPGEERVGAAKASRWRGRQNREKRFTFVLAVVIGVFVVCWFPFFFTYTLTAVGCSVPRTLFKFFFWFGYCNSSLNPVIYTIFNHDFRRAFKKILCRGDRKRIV
The assay is classed as functional, cell-based.

Assay [2] deals with Growth hormone secretagogue receptor type 1 (Homo sapiens, UniProt Q92847).
Chain of Growth hormone secretagogue receptor type 1 (Q92847 whole entry): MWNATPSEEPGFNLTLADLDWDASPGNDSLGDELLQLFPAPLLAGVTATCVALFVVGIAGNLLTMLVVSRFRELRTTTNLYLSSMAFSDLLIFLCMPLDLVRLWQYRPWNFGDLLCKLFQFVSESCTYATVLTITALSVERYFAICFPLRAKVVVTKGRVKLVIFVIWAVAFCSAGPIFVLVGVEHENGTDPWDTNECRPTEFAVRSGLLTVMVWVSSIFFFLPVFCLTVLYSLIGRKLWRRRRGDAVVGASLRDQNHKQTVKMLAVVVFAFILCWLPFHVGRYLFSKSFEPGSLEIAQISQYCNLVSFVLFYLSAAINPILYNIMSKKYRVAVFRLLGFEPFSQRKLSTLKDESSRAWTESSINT
The target of assay [3] is Vasopressin V2 receptor (Homo sapiens, UniProt P30518).
Chain of Vasopressin V2 receptor (P30518 whole entry): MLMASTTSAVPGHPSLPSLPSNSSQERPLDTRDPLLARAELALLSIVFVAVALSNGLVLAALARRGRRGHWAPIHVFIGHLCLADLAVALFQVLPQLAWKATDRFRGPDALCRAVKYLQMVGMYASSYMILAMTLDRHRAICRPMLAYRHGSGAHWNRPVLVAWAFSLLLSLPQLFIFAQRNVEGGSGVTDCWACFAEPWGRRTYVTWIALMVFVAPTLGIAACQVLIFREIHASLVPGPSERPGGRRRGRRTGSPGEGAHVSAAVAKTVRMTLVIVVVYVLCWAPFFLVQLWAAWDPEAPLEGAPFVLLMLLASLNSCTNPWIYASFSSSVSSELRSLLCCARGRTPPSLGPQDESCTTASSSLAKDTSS
Assay [4] concerns the target T2, Muscarinic acetylcholine receptor M2 (Homo sapiens, UniProt P08172).
T2 sequence (P08172 whole entry): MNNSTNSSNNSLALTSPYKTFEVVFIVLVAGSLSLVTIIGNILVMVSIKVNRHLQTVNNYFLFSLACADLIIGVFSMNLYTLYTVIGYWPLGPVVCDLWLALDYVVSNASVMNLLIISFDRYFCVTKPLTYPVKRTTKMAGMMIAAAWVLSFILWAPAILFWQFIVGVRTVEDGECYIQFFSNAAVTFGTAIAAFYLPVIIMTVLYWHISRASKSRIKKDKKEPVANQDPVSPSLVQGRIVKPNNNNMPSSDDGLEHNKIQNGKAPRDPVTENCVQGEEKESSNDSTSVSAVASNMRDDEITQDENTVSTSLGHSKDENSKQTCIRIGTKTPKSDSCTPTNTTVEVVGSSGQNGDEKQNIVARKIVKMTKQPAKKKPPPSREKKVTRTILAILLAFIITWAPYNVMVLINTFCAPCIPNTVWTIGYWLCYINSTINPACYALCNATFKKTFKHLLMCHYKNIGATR
The format is functional, cell-based.

The target in assay [5] is T3, Prostaglandin G/H synthase 1 (Rattus norvegicus, UniProt Q63921).
T3 sequence (Q63921 whole entry): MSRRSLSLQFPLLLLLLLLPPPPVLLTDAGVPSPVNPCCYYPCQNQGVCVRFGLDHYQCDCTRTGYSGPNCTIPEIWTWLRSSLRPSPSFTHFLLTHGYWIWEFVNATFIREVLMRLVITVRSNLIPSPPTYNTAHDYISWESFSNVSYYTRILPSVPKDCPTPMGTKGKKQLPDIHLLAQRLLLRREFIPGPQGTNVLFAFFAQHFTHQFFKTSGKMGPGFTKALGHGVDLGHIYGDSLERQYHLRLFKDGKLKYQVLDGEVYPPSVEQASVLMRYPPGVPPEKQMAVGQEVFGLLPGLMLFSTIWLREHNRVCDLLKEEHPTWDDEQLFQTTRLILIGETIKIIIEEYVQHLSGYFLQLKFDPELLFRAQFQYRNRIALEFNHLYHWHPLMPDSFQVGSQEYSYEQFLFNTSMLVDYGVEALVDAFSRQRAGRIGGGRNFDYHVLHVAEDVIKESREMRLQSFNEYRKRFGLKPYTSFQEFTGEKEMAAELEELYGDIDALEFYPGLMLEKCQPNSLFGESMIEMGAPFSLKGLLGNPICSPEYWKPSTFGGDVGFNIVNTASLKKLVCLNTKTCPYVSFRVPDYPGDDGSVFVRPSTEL
The format is functional.

In assay [6] the target is Histamine H3 receptor (Homo sapiens, UniProt Q9Y5N1).
Chain of Histamine H3 receptor (Q9Y5N1 whole entry): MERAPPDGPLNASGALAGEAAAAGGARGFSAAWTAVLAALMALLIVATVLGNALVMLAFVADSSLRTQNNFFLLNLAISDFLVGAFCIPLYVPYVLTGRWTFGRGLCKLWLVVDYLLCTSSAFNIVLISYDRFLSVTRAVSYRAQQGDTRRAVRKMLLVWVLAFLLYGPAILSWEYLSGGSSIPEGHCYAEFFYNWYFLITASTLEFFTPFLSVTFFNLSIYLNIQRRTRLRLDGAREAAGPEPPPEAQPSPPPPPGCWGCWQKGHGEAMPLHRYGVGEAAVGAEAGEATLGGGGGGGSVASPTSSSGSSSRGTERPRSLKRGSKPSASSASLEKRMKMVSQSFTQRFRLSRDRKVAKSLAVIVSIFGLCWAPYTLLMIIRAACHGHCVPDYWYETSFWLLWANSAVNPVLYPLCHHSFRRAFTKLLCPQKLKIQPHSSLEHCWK
Assay [7] addresses cGMP-inhibited 3',5'-cyclic phosphodiesterase 3A (Homo sapiens, UniProt Q14432). The assay is classed as functional.
In assay [8] the target is Beta-1 adrenergic receptor (Homo sapiens, UniProt P08588). The assay is classed as functional.
Chain of Beta-1 adrenergic receptor (P08588 whole entry): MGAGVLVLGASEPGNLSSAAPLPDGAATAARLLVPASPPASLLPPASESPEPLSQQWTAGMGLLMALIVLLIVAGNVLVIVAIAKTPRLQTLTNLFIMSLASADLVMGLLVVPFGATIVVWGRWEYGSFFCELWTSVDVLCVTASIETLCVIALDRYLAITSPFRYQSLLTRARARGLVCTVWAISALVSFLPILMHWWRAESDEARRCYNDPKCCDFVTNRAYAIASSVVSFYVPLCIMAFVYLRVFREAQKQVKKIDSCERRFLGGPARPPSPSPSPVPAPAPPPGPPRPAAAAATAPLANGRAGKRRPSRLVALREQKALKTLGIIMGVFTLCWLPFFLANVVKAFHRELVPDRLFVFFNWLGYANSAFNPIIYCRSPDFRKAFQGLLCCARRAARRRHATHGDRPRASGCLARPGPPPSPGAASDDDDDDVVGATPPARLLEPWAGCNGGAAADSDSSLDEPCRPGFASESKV
The target in assay [9] is T4, Thromboxane A2 receptor (Homo sapiens, UniProt P21731).
T4 sequence (P21731 whole entry): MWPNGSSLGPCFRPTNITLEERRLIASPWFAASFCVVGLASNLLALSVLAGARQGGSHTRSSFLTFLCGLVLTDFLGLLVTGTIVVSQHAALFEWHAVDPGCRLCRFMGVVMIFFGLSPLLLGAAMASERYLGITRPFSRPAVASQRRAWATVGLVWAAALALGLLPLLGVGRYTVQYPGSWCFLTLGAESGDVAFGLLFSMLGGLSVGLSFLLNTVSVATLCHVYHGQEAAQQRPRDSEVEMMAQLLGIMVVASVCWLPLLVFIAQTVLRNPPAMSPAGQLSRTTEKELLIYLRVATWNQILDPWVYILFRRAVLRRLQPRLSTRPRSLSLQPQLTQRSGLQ

For assay [10], the target named is T5, 5-hydroxytryptamine receptor 1A (Homo sapiens, UniProt P08908).
T5 sequence (P08908 whole entry): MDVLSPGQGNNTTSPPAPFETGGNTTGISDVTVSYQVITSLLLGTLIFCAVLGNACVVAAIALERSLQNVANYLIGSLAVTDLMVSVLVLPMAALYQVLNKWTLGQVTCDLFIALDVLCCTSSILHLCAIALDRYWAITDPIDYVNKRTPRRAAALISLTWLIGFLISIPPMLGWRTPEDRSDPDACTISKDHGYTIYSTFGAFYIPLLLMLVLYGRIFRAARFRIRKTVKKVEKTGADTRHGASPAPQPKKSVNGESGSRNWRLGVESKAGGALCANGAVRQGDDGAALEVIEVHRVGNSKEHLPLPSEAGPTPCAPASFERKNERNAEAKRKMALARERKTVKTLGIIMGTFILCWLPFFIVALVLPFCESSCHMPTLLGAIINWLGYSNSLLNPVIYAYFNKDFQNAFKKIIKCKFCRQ
The format is functional, cell-based.
Also: assay procedure not described here.

Chain of cGMP-inhibited 3',5'-cyclic phosphodiesterase 3A (Q14432 whole entry): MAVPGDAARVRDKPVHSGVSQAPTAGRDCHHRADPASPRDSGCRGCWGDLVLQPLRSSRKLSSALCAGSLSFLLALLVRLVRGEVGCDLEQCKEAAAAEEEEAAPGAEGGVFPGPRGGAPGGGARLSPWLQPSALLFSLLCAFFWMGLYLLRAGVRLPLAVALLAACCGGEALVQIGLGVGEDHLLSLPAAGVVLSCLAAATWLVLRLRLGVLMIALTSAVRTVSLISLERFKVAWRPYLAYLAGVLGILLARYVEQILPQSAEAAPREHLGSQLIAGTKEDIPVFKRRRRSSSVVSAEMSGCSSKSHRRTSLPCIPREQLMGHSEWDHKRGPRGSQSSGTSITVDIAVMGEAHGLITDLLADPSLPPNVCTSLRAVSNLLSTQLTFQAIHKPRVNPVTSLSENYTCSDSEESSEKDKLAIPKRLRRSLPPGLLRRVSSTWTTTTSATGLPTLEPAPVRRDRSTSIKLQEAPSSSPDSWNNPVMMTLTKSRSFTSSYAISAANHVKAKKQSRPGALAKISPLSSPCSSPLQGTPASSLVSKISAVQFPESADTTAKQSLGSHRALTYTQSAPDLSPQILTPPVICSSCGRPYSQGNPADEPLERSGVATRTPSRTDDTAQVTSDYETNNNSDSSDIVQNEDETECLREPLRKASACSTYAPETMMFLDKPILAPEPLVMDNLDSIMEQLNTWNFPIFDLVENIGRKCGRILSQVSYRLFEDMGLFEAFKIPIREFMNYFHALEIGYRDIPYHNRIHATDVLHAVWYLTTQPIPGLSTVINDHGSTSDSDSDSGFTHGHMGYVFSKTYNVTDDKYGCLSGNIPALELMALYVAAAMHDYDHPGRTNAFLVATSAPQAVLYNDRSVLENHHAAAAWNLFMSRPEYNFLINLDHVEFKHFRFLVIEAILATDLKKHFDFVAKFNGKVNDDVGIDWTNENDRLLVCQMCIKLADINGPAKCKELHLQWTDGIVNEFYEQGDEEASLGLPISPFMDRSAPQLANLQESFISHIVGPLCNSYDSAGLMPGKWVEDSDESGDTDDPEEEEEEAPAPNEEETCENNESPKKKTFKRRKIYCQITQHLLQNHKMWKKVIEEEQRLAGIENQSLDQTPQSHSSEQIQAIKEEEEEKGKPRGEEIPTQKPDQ

What is called AC50 is the midpoint of the concentration-response curve, whichever way the signal moves. For the compound `COc1ccc(/C=C/C(=O)Nc2ccccc2C(=O)O)cc1OC`, the AC50 in assay [1] was above 30 µM; in [2], above 30 µM; in [3], above 30 µM; in [4], above 30 µM; in [5], 7.4 µM; in [6], above 30 µM. In addition, the AC50 in assay [7] is 24 µM; in assay [8] it was above 30 µM; in [9], above 30 µM; in assay [10], above 30 µM.

As to `NCCCC(O)(P(=O)(O)O)P(=O)(O)O` [ALENDRONIC ACID], the AC50 in [1] is above 10 µM; in assay [2] it was above 30 µM; in assay [3], above 30 µM; in assay [6], above 10 µM; in [7] it was 1.09 µM; in assay [8], above 10 µM. Further, the half-maximal activity concentration (AC50) is above 30 µM in [9] and above 10 µM in [10].

Regarding `Nc1ccc(C(=O)O)c(O)c1` [AMINOSALICYLIC ACID], the AC50 in assay [1], in assay [2], in [3], in assay [4], in [5] and in assay [6] was above 30 µM throughout. Also, the AC50 in [7], in assay [8], in assay [9] and in assay [10] was above 30 µM each time.

Consider `COc1cc(OC)c(C(=O)CCCN2CCCC2)c(OC)c1` [BUFLOMEDIL], for which the AC50 in assay [1] is 6.1 µM; in [2] it was above 30 µM; in [3] it was above 30 µM; in assay [4], above 30 µM; in [5], above 30 µM; in assay [6], 20 µM. Further, the AC50 in assay [7], in assay [8], in assay [9] and in assay [10] was above 30 µM throughout.

For the compound `CS(=O)(=O)OCCCCOS(C)(=O)=O` [BUSULFAN], the concentration at half-maximal activity (AC50) in assay [1], in assay [2], in assay [3], in [4], in [5] and in assay [6] was above 30 µM each time. Also, the AC50 in [7], in assay [8] and in assay [10] was above 30 µM in each case.

`COc1cccc2c1C(=O)c1c(O)c3c(c(O)c1C2=O)C[C@@](O)(C(C)=O)C[C@@H]3O[C@H]1C[C@H](N)[C@H](O)[C@H](C)O1` [DAUNORUBICIN]: the AC50 is 5.17 µM in assay [2]; above 10 µM in assay [3]; above 30 µM in [5]; 18 µM in assay [6]; above 30 µM in assay [7]; 28 µM in assay [8]. In assay [9], this compound showed a concentration at half-maximal activity (AC50) of 25 µM.

Regarding `CC1(C)C(/C=C/C=C/C=C/C=C2\N(CCCCS(=O)(=O)O)c3ccc4ccccc4c3C2(C)C)=[N+](CCCCS(=O)(=O)[O-])c2ccc3ccccc3c21` [INDOCYANINE GREEN ACID FORM], the AC50 in assay [1] was above 30 µM; in [2] it was 14 µM; in assay [3], above 30 µM; in [5], 21 µM; in assay [7], 29 µM; in assay [8] it was 9.4 µM. The same compound displayed an AC50 in [10] above 30 µM.

`CC#CCn1c(N2CCC[C@@H](N)C2)nc2c1c(=O)n(Cc1nc(C)c3ccccc3n1)c(=O)n2C` [LINAGLIPTIN]: the AC50 was above 10 µM in assay [1]; 5.2 µM in [2]; above 30 µM in assay [3]; above 30 µM in [5]; above 10 µM in assay [6]; above 30 µM in [7]. In addition, the AC50 in [8] was above 10 µM; in assay [9], above 30 µM.

In the case of `CCn1cc(C(=O)O)c(=O)c2cc(F)c(N3CCN(C)CC3)cc21` [PEFLOXACIN], the AC50 in [1], in assay [2], in [3], in assay [4], in assay [5] and in assay [6] was above 30 µM in each case. The AC50 in assay [7], in assay [8] and in [10] was above 30 µM throughout.

`C[n+]1ccccc1/C=N/O` [PRALIDOXIME]: the half-maximal activity concentration (AC50) in assay [1] and in assay [7] was above 30 µM each time.

As for `CCCNC(C)C(=O)Nc1ccccc1C` (stereo not drawn) [PRILOCAINE], the AC50 in assay [1], in assay [2], in assay [3], in [4], in assay [5] and in [6] was above 30 µM each time. Further, the AC50 in assay [7], in assay [8] and in assay [10] was above 30 µM in each case.

Regarding `Cc1cc2nc3c(=O)[nH]c(=O)nc-3n(C[C@H](O)[C@H](O)[C@H](O)COP(=O)(O)O)c2cc1C` [RIBOFLAVIN 5'-PHOSPHATE], the AC50 in assay [2] was above 30 µM; in assay [3], above 30 µM; in [5], 0.9 µM; in assay [6] it was above 30 µM; in assay [7], above 30 µM; in assay [8], above 30 µM. In assay [9], this compound registered an AC50 above 30 µM.

For `CC(C)(C)NC[C@H](O)COc1nsnc1N1CCOCC1` [TIMOLOL], the concentration at half-maximal activity (AC50) in [1], in assay [2], in assay [3], in assay [4], in assay [5] and in assay [6] was above 30 µM throughout. The AC50 in assay [7], in assay [9] and in assay [10] was above 30 µM throughout.

In the case of `Cc1cccc(N(C)C(=S)Oc2ccc3ccccc3c2)c1` [TOLNAFTATE], the AC50 was above 10 µM in assay [1]; above 10 µM in assay [2]; above 10 µM in assay [3]; above 10 µM in [4]; above 10 µM in assay [5]; above 30 µM in assay [7]. Moreover, the AC50 in [8], in assay [9] and in assay [10] was above 10 µM in each case.

Consider `COc1ccc(C(CN(C)C)C2(O)CCCCC2)cc1` (stereo not drawn) [VENLAFAXINE], for which the AC50 in assay [1] is above 10 µM; in [2] it was above 30 µM; in assay [3], above 30 µM; in [4], above 10 µM; in assay [5], above 30 µM; in assay [6], 6.8 µM. The results for the concentration at half-maximal activity (AC50) in assay [7], in assay [8] and in assay [10] were above 10 µM, above 10 µM and above 30 µM, respectively.
